# Results taken from patent publication US12514849B2, “Pharmaceutical formulations containing relacorilant, a heteroaryl-ketone fused azadecalin compound” (Corcept Therapeutics Incorporated, priority 2018, dated 2026).
# Key:
# [1] = Stability of relacorilant to pH, moisture and light; assay type: physicochemical
# Experimental: Relacorilant stability and compatibility with various excipients was tested and suitable excipients were identified. […] Lauryl polyoxyl-32 glycerides (Gelucire 44/14, available from Gattefosse USA, New Jersey) in place of the stearoyl polyoxyl-32 glycerides were then used. […] This formulation was tested for stability. Stability testing included testing of some formulations for up to one year.
# [2] = Compatibility/stability of relacorilant with excipients at 40° C./75% RH and 60° C.; assay type: physicochemical
# Experimental: The stability of relacorilant in a series of potential excipients was also examined for two weeks at 40° C. at 75% relative humidity, and at 60° C., including in formulations of Table I. The predominant degradation path was through formation of the aromatic decarbonylation of relacorilant with both propylene glycol monocaprylate and lauroyl polyoxyl-32 glyceride excipients. Relacorilant stability was good with both these excipients.
smiles,measurement,setting,value
"Cn1cc(S(=O)(=O)N2CCC3=Cc4c(cnn4-c4ccc(F)cc4)C[C@]3(C(=O)c3cc(C(F)(F)F)ccn3)C2)cn1 [Relacorilant, (R)-(1-(4-fluorophenyl)-6-((1-methyl-1H-pyrazol-4-yl)sulfonyl)-4,4a,5,6,7,8-hexahydro-1H-pyrazolo[3,4-g]isoquinolin-4a-yl)(4-(trifluoromethyl)pyridin-2-yl)methanone]",sensitivity to moisture and light,[1],sensitive to both moisture and light
same,stability in acidic aqueous solutions,[1]; acidic aqueous solutions,stable
same,stability under basic conditions,[1]; basic conditions,sensitive to basic conditions
same,stability over time in formulations having basic pH,"[1]; basic pH, particularly pH greater than 8, versus neutral or acidic pH",significantly less stable
same,stability in neutral solutions,[1]; neutral solutions at elevated temperatures,degrade over time
same,purity (% relacorilant of relacorilant plus relacorilant-derived impurities),"[2]; in lauroyl polyoxyl-32 glycerides, 40° C./75% RH, 1 week",97.64%
same,purity (% relacorilant of relacorilant plus relacorilant-derived impurities),"[2]; in lauroyl polyoxyl-32 glycerides, 40° C./75% RH, 2 week",97.55%
same,purity (% relacorilant of relacorilant plus relacorilant-derived impurities),"[2]; in lauroyl polyoxyl-32 glycerides, 60° C., 1 week",97.22%
same,purity (% relacorilant of relacorilant plus relacorilant-derived impurities),"[2]; in lauroyl polyoxyl-32 glycerides, 60° C., 2 week",96.77%
same,purity (% relacorilant of relacorilant plus relacorilant-derived impurities),"[2]; in lauroyl polyoxyl-32 glycerides, Control",98.09%
same,purity (% relacorilant of relacorilant plus relacorilant-derived impurities),"[2]; in lauroyl polyoxyl-32 glycerides, T0",98.13%
same,purity (% relacorilant of relacorilant plus relacorilant-derived impurities),"[2]; in propylene glycol monocaprylate, 40° C./75% RH, 1 week",98.00%
same,purity (% relacorilant of relacorilant plus relacorilant-derived impurities),"[2]; in propylene glycol monocaprylate, 40° C./75% RH, 2 week",97.84%
same,purity (% relacorilant of relacorilant plus relacorilant-derived impurities),"[2]; in propylene glycol monocaprylate, 60° C., 1 week",97.51%
same,purity (% relacorilant of relacorilant plus relacorilant-derived impurities),"[2]; in propylene glycol monocaprylate, 60° C., 2 week",96.65%
same,purity (% relacorilant of relacorilant plus relacorilant-derived impurities),"[2]; in propylene glycol monocaprylate, Control",98.03%
same,purity (% relacorilant of relacorilant plus relacorilant-derived impurities),"[2]; in propylene glycol monocaprylate, T0",98.09%
